Experimental data taken from patent US20210337847A1, “Mint Flavor Compositions” (The Procter & Gamble Company, priority 2020, published 2021).

What was measured:
[1] = Expert sensory testing of racemic menthol versus (−)-menthol in a toothpaste formulation (CREST Cavity) with a standard spearmint flavor; assay type: in vivo
Method: In separate, unpublished internal experiments, perceptual experiences of racemic menthol are quantified via expert sensory testing. The use of a standard spearmint flavor (minimizing extra menthol contribution) compared racemic menthol to (−)-menthol in a toothpaste formulation (CREST Cavity). There are several sensory observations taken from these experiments. […] These aromatic notes appear during brushing and disappear after 5-10 minutes post expectoration and are more pronounced as concentrations increase.

[2] = Comparison of cooling attributes of (−)-menthol and racemic menthol in a toothpaste (CREST Cavity formulation); assay type: in vivo; conditions: for Potency compared to L-Menthol / Time Point at Maximum Cooling / Maximum Cooling (0-60 scale) / Maximum Longevity: CREST Cavity formulation; for Maximum Cooling (0-60 scale): 60 = greatest amount of cooling, 0 = least; for Maximum Longevity: longevity of cooling; for EC 50: concentration of coolant giving 50% of its maximal cooling
From the text: The following data helps support the use of racemic menthol to reduce costs of mint flavor compositions herein described. From internal unpublished research, Table B compares replacing (−)-menthol with a racemic menthol in a 1:1 in a toothpaste formulation. Such a direct replacement is not preferred given the reduced cooling profile and olfactory differences; however, a portion of L-menthol is preferably replaced by racemic-menthol to gain cost efficiency while minimizing impact to the overall mint flavor profiles.
Table B is a comparison of attributes between (-)-menthol and racemic menthol in a toothpaste context (using CREST Cavity formulation).
This value represents the concentration of a coolant where 50% of its maximal cooling is observed.

| EC 50 [2] | SMILES | Less potent than (−)-menthol for cooling [1] | Potency compared to L-Menthol [2] | Time Point at Maximum Cooling [2] | Maximum Cooling (0-60 scale) [2] | Maximum Longevity [2] |
| --- | --- | --- | --- | --- | --- | --- |
| 1,250 to 1,500 parts per million | CC1CCC(C(C)C)C(O)C1 (racemic) [Racemic Menthol, racemic menthol] | 25-30% | ~0.65-0.7x | ~1 min | 35 | Up to 20 minutes |
| 1,750 to 2,250 parts per million | CC1CCC(C(C)C)C(O)C1 (single isomer, unassigned; (-)) [(−)-Menthol, (−)-menthol] |  | 1x | ~5 min | 40 | Up to 25 minutes |
